Experimental data taken from patent US20260167636A1, “NOVEL COMPOUNDS FOR THE DIAGNOSIS OF TDP-43 PROTEINOPATHIES” (AC IMMUNE SA, priority 2022, published 2026).
Like-named read-outs stand apart in the source and are kept apart here. Marks after values point to notes of the source that are not given here.

Columns and labels:
Format in all cases: binding
[1] = target: T1, FTD patient brain-derived TDP-43 aggregates (Homo sapiens, UniProt Q13148); assay: Micro-radiobinding competition assay against [3H]-reference ligand; conditions: tritiated reference ligand at 25 nM; for Ki: 0.24 nM to 2 μM; for Human brain derived TDP-43 aggregates Mean % competition at 125 nM: compound at 125 nM; for Human brain derived TDP-43 aggregates Mean % competition at 1 μM: compound at 1 μM
T1 construct: A sample of brain tissue (frontal or temporal cortex) was homogenized; from tissue; host or cells: human FTD patient brain, frontal or temporal cortex, sarkosyl-insoluble fraction
Experimental: (§1) Human brain extracts were prepared as described in Laferriere et al., 2019, Nature Neurosc. A sample of brain tissue (frontal or temporal cortex) was homogenized at 1:4 (w/v) ratio in the homogenization-solubilization (HS) buffer at 4° C. using tissue homogenizer (Precellys) with CKmix homogenization tubes. The following sequence was used for homogenization: 3 cycles of 30 seconds at 5000 rpm (with 15 seconds pause between each cycle). Homogenized samples were aliquoted and stored at −80° C. in 1.5 mL low protein binding tubes.
(§2) Brain homogenates were thawed on ice and resuspended in HS buffer to obtain a final concentration of 2% sarkosyl, 1 unit/μL Benzonase and 1 mM MgCl2. The samples were then incubated at 37° C. under constant shaking at 600 rpm on a thermomixer for 45 minutes (min). The supernatants were collected in a new tube (sarkosyl-soluble fraction, S1). The pellet was resuspended in 1000 μL of myelin floatation buffer and centrifuged at 20,000 g for 60 min at 4° C. The supernatant was carefully removed to remove all the floating lipids. This step was repeated if all the lipids could not be removed in a single step. The pellet was subsequently washed with Phosphate-Buffered Saline (PBS) and centrifuged for 30 min at 20,000 g at 4° C. The final pellet was resuspended in 200 μL PBS and stored at −80° C. (sarkosyl-insoluble fraction). The samples were analyzed by immunoblotting in denaturing conditions.
(§3) Human FTD sarkosyl-insoluble brain extracts were spotted onto microarray slides. Three batches of extracts were used. The slides were incubated with a tritiated reference ligand at 25 nM or with tritiated Compound 1 ([^3H]-Compound 1) at 40 nM or 50 nM depending on the batch used. The example compounds (non-radiolabeled) were used at 1 μM and 125 nM (or 1 μM and 100 nM for compound 15). In some cases, the non-radiolabeled example compounds were further assessed for a range of different concentrations, varying from 0.24 nM to 2 μM for determination of the inhibition constant (Ki). After incubation, slides were washed and scanned by a real-time autoradiography system (BeaQuant, ai4R). Quantification of the signal was performed by using the Beamage image analysis software (ai4R). Non-specific signal was determined with an excess of non-radiolabeled reference compound (2 μM) and specific binding was calculated by subtracting the non-specific signal from the total signal. Competition was calculated as percent, where 0% was defined as the specific binding in the presence of vehicle and 100% as the values obtained in the presence of excess of the non-radiolabeled reference compound. Ki values were calculated in GraphPad Prism8 by applying a nonlinear regression curve fit using a one site, specific binding model. Measurements were performed with at least two technical replicates in the two-concentration competition experiment and with one technical replicate in the experiments including a range of concentrations. For compounds tested in more than one experiment, the mean of the replicates or K; values in independent experiments is reported.
Results: Example compounds 1 to 10 were assessed for their potency to compete with the binding of [^3H]-reference ligand to FTD patient brain-derived TDP-43 aggregates. Results of the micro-radiobinding competition assay for the example compounds are shown in Table 2 below as: % competition at 1 μM and 125 nM.

[2] = target: T2, Human brain derived TDP-43 aggregates (Homo sapiens, UniProt Q13148); assay: Micro-radiobinding competition assay against [3H]-Compound 1; conditions: for Ki: 0.24 nM to 2 μM; for Ki / Human brain derived TDP-43 aggregates Mean % competition at 1 μM: [3H]-Compound 1 at 50 nM (40 nM for compound 15); for Human brain derived TDP-43 aggregates Mean % competition at 125 nM: compound at 125 nM, [3H]-Compound 1 at 50 nM; for Human brain derived TDP-43 aggregates Mean % competition at 1 μM: compound at 1 μM
T2 construct: A sample of brain tissue (frontal or temporal cortex) was homogenized; from tissue; host or cells: human FTD patient brain, frontal or temporal cortex, sarkosyl-insoluble fraction
Experimental: as §1, §2, §3
Example compounds 11 to 15 were assessed for their potency to compete with the binding of [^3H]-Compound 1 on two different batches of brain extracts. Results of the micro-radiobinding competition assay for the example compounds are shown in Table 3 below as: % competition at 1 μM and 125 nM (with Compound 1 at 50 nM) for compounds 11 to 14, or % competition at 1 μM and 100 nM (with Compound 1 at 40 nM) for compound 15 respectively.

[3] = target: T3, TDP-43 aggregates in human FTD sarkosyl-insoluble brain extracts (Homo sapiens, UniProt Q13148); assay: Kd determination with micro-radiobinding (saturation) assay on human FTD sarkosyl insoluble brain extract
T3 construct: A sample of brain tissue (frontal or temporal cortex) was homogenized; from tissue; host or cells: human FTD patient brain, frontal or temporal cortex, sarkosyl-insoluble fraction
Experimental: as §1, §2
2.1 Kd Determination on Human FTD Sarkosyl Insoluble Brain Extract with Micro-Radiobinding Assay of [^3H]-Compound 1, 4, 8, 11, 12
Human FTD sarkosyl-insoluble brain extracts were spotted onto microarray slides. The slides were incubated with [^3H]-Compound 1, [^3H]-Compound 4, [^3H]-Compound 8, [^3H]-Compound 11, or [^3H]-Compound 12 respectively, in a range of concentrations, varying from 1.93 to 300 nM. After incubation, slides were washed and scanned by a real-time autoradiography system (BeaQuant, ai4R). Quantification of the signal was performed by using the Beamage image analysis software (ai4R). Non-specific signal was determined with an excess of non-radiolabelled compound 1, 4, 8, 11 or 12 (2 μM), respectively, and specific binding was calculated by subtracting the non-specific signal from the total signal.
The Kd (Dissociation constant) and R^2 (parameter ranging between 0.0 and 1.0 that quantifies the goodness of fit, and the best curve fit obtained with value of 1.0) were obtained by fitting the specific binding data with non-linear regression analysis, using a one-site specific binding model in GraphPad Prism8.

[4] = tritiated compound 1.93 to 300 nM on human FTD sarkosyl-insoluble brain extracts, one-site specific binding fit, read-out: Kd (dissociation constant)
[5] = different batch of FTD sarkosyl-insoluble brain extracts, read-out: Kd (dissociation constant)

T3 sequence (Q13148 whole entry): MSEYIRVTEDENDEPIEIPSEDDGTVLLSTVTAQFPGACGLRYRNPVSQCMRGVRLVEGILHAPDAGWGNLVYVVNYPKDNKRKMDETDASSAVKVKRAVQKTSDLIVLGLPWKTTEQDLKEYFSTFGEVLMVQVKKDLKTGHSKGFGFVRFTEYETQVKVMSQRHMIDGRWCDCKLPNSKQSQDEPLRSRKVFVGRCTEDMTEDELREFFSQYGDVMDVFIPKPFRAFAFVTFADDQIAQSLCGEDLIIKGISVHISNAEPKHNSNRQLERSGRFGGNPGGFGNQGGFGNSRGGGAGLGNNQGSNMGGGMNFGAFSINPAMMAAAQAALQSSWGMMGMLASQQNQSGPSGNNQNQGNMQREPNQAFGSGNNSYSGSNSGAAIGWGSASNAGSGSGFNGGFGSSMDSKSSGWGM
T1 sequence (Q13148 whole entry): as above
T2 sequence (Q13148 whole entry): as above

| Ki [1] [µM] | Human brain derived TDP-43 aggregates Mean % competition at 125 nM [1] [%] | Human brain derived TDP-43 aggregates Mean % competition at 1 μM [1] [%] | SMILES | further results |
| --- | --- | --- | --- | --- |
| 0.105 | 63 | 102 | O=C(Nc1ccc(F)nc1)c1cnc(-c2ccc(N3CC[C@@H](F)C3)nc2)s1 [Compound 1, (R)—N-(6-fluoropyridin-3-yl)-2-(6-(3-fluoropyrrolidin-1-yl)pyridin-3-yl)thiazole-5-carboxamide] | – |
| 0.116 | 60 | 94 | O=C(Nc1cnsc1)c1cnc(-c2ccc(N3CC[C@@H](F)C3)nc2)s1 [Compound 4, (R)-2-(6-(3-fluoropyrrolidin-1-yl)pyridin-3-yl)-N-(isothiazol-4-yl)thiazole-5-carboxamide] | – |
| 0.223 | 53 | 70 | O=C(Nc1cnc(F)cn1)c1cnc(-c2ccc(N3CC[C@@H](F)C3)nc2)s1 [Compound 5] | – |
| 0.089 | 46 | 83 | O=C(Nc1cnc(F)nc1)c1cnc(-c2ccc(N3CC[C@@H](F)C3)nc2)s1 [Compound 6] | – |
| 0.063 | 52 | 80 | Nc1cc(NC(=O)c2cnc(-c3ccc(N4CC[C@H](F)C4)nc3)s2)ccc1F [Compound 7] | – |
| 0.075 | 47 | 78 | O=C(Nc1ccncc1)c1cnc(-c2cnc(N3CC[C@H](F)C3)nc2)s1 [Compound 8, (S)-2-(2-(3-fluoropyrrolidin-1-yl)pyrimidin-5-yl)-N-(pyridin-4-yl)thiazole-5-carboxamide] | – |
| 0.082 | 60 | 83 | O=C(Nc1ccncc1)c1cnc(-c2cnc(N3CC[C@@H](F)C3)cn2)s1 [Compound 9] | – |
| 0.071 | 54 | 70 | O=C(Nc1ccc(F)nc1)c1cnc(-c2ccc(N3CC[C@@H](F)C3)cc2)s1 [Compound 10] | – |
| – | – | – | O=C(Nc1cncc(F)c1)c1cnc(-c2ccc(N3CC[C@@H](F)C3)nc2)s1 [Compound 11, (R)—N-(5-fluoropyridin-3-yl)-2-(6-(3-fluoropyrrolidin-1-yl)pyridin-3-yl)thiazole-5-carboxamide] | Ki [2]: 0.05 µM; Human brain derived TDP-43 aggregates Mean % competition at 125 nM [2]: 65%; Human brain derived TDP-43 aggregates Mean % competition at 1 μM [2]: 80% |
| – | – | – | O=C(Nc1cncc(F)c1)c1sc(-c2ccc(N3CC[C@@H](F)C3)nc2)nc1F [Compound 12, (R)-4-fluoro-N-(5-fluoropyridin-3-yl)-2-(6-(3-fluoropyrrolidin-1-yl)pyridin-3-yl)thiazole-5-carboxamide] | Ki [2]: 0.213 µM; Human brain derived TDP-43 aggregates Mean % competition at 125 nM [2]: 43%; Human brain derived TDP-43 aggregates Mean % competition at 1 μM [2]: 50% |
| – | – | – | O=C(Nc1ccc(F)nc1)c1sc(-c2ccc(N3CC[C@@H](F)C3)nc2)nc1F [Compound 13, (R)-4-fluoro-N-(6-fluoropyridin-3-yl)-2-(6-(3-fluoropyrrolidin-1-yl)pyridin-3-yl)thiazole-5-carboxamide] | Ki [2]: 0.107 µM; Human brain derived TDP-43 aggregates Mean % competition at 125 nM [2]: 42%; Human brain derived TDP-43 aggregates Mean % competition at 1 μM [2]: 75% |
| – | – | – | O=C(Nc1cncnc1)c1sc(-c2ccc(N3CC[C@@H](F)C3)nc2)nc1F [Compound 14] | Ki [2]: 0.153 µM; Human brain derived TDP-43 aggregates Mean % competition at 125 nM [2]: 38%; Human brain derived TDP-43 aggregates Mean % competition at 1 μM [2]: 77% |
| – | – | – | O=C(Nc1cnsc1)c1sc(-c2ccc(N3CC[C@@H](F)C3)nc2)nc1F [Compound 15] | Ki [2]: 0.01 µM; Mean % competition at 100 nM ([2]; compound at 100 nM, [3H]-Compound 1 at 40 nM): 47* %; Human brain derived TDP-43 aggregates Mean % competition at 1 μM [2]: 92% |
| – | – | – | O=C(Nc1ccc(F)nc1)c1cnc(-c2ccc(N3CC[C@@H](F)C3)nc2)s1 [[^3H]-Compound 1] | Kd ([3]; data from two independent experiments, human FTD sarkosyl-insoluble brain extracts, read-out: average Kd): 0.053 ± 0.01 µM; specific binding ([3]; human FTD sarkosyl insoluble brain extracts, result in words): high specific binding; Kd [3, 4]: 0.052 µM |
| – | – | – | O=C(Nc1cnsc1)c1cnc(-c2ccc(N3CC[C@@H](F)C3)nc2)s1 [[^3H]-Compound 4, tritiated (R)-2-(6-(3-fluoropyrrolidin-1-yl)pyridin-3-yl)-N-(isothiazol-4-yl)thiazole-5-carboxamide] | Kd [3, 5]: 0.051 µM |
| – | – | – | O=C(Nc1ccncc1)c1cnc(-c2cnc(N3CC[C@H](F)C3)nc2)s1 [[^3H]-Compound 8, tritiated (S)-2-(2-(3-fluoropyrrolidin-1-yl)pyrimidin-5-yl)-N-(pyridin-4-yl)thiazole-5-carboxamide] | Kd [3, 5]: 0.075 µM |
| – | – | – | O=C(Nc1cncc(F)c1)c1cnc(-c2ccc(N3CC[C@@H](F)C3)nc2)s1 [[^3H]-Compound 11, tritiated (R)—N-(5-fluoropyridin-3-yl)-2-(6-(3-fluoropyrrolidin-1-yl)pyridin-3-yl)thiazole-5-carboxamide] | Kd [3, 4]: 0.08 µM |
| – | – | – | O=C(Nc1cncc(F)c1)c1sc(-c2ccc(N3CC[C@@H](F)C3)nc2)nc1F [[^3H]-Compound 12] | Kd [3, 4]: 0.067 µM |
